From publication PMC5571359, “Screening the Medicines for Malaria Venture Pathogen Box across Multiple Pathogens Reclassifies Starting Points for Open-Source Drug Discovery” (Antimicrobial Agents and Chemotherapy, 2017)
Where two headings read alike, the source gives them in different places.

Assays:
[1] = system: T. cruzi intracellular amastigotes; assay: Intracellular anti-Trypanosoma cruzi image-based assay (amastigotes); assay type: cell-based; conditions: for IC50 / Emax: Trypanosoma cruzi; for Emax: PBox kinetoplastid set compounds active against T. cruzi alone, read-out: Emax against T. cruzi (subefficacious effect)
[2] = system: T. b. brucei 427 bloodstream trypanosomes; assay: T. b. brucei resazurin viability assay; assay type: cell-based, Trypanosoma brucei brucei
[3] = system: T. cruzi C4 β-galactosidase reporter parasite in MRC 5SV2 host cells; conditions: cited from earlier work
T. brucei brucei = conditions: ref Pbox supporting information, cited from earlier work
T. brucei rhodesiense = conditions: ref Pbox supporting information, cited from earlier work; for IC50: read-out: T .b. rohdensie Pbox IC50
[4] = system: L. infanium (macrophages); parameters: method as in Pbox supporting information; conditions: ref Pbox supporting information; cited from earlier work
HEK293 cells = assay: HEK293 resazurin cell cytotoxicity assay; conditions: Homo sapiens
HepG2 = conditions: cited from earlier work
[5] = system: L. donovani MHOM/IN/80/DD8 intracellular amastigotes; assay: Leishmania donovani intracellular amastigote assay in THP-1 cells; assay type: cell-based; conditions: Leishmania donovani, THP-1, intracellular amastigotes
[6] = system: Plasmodium falciparum 3D7 asexual blood stage; assay: microbe, parasite or virus in culture
[7] = system: NF54-pfs16-LUC-GFP stage IV gametocytes; assay: Plasmodium falciparum late stage gametocyte (LSG) image-based assay; assay type: cell-based
[8] = intracellular amastigotes, read-out: T cruzi Discovery Biology IC50
[9] = Trypanosoma brucei; read-out: T b.brucei Discovery Biology IC50
[10] = ref Pbox supporting information, read-out: T. cruzi Pbox IC50
[11] = read-out: T.b. brucei Pbox IC50
[12] = HEK293, read-out: HEK % Inhibition 20uM/IC50 Discovery Biology
[13] = some values marked *, read-out: L, donovani Discovery Biology IC50
[14] = 7 days exposure, ref PBox supporting information, read-out: T. cruzi IC50 in the PBox supporting information file
[15] = HepG2, ref PBox supporting information
[16] = 3D7, read-out: Antiplasmodial IC50 (ABS), PBox compounds, P. falciparum 3D7
[17] = Plasmodium falciparum, NF54, read-out: Pf Stage IV GAMS Discovery Biology IC50, stage IV gametocytes
[18] = 3D7, read-out: Pf 3D7 Discovery Biology IC50, P. falciparum 3D7 asexual blood stage
[19] = HEK293, read-out: HEK % Discovery Biology IC50
[20] = Plasmodium falciparum, NF54, read-out: Antiplasmodial IC50 (GAM / LSG), PBox compounds, stage IV gametocytes, single determination
[21] = PBox compounds, intracellular amastigotes, 48 h exposure, read-out: IC50 T. cruzi (Discovery Biology)

SMILES | IC50 [1, 8] | IC50 [2, 9] | IC50 [3, 10] | IC50 (T. brucei brucei; [11]) | IC50 (T. brucei rhodesiense) | IC50 [4] | IC50 (HEK293 cells; [12]) | HepG2 PBox CC20 (HepG2; [15]) | IC50 [6, 16] | other results
COc1ccc(S(=O)(=O)Nc2ccc(CN3CCN(C(=O)c4cccc(C#N)c4)CC3)cc2)cc1 [MMV689029] | 1.39 µM | 1.08 µM | 2.7 µM | 0.5 µM | 0.4 µM | 52.2 µM | > 20 µM |  |  | activity against T. brucei rhodesiense (T. brucei rhodesiense): demonstrated activity
CO[C@@H]1CN(c2ccc(C#CC3(O)CN4CCC3CC4)c(Cc3ccccc3)n2)C[C@H]1O (stereo partly shown) [MMV688415] | 0.1 µM |  | < 0.13 µM | 16.1 µM | 4 µM | 17.3 µM | > 20 µM |  |  | Emax [1]: < 100%; HepG2 PBox CC20 (HepG2): 38.4 µM
O=C(NCCc1ccn(-c2ccccc2)n1)C1CCCCC1 [MMV688795] | 0.93 µM | 0.27 µM | 0.74 µM | 0.15 µM | < 0.13 µM | > 64 µM | > 20 µM |  |  | 
N=C(N)Nc1ccc(-c2ccc(-c3ccc(NC(=N)N)c(Cl)c3)o2)cc1Cl [MMV688271] |  | 0.52 µM | 0.66 µM | 0.6 µM | 0.2 µM | 10.2 µM | > 20 µM | 13.5 µM | 1.21 µM | activity against T. cruzi in the Discovery Biology assay [1]: lack of activity; activity against T. cruzi at 8 μM in the Discovery Biology assay [1]: no activity; IC50 [5, 13]: 3.31 µM; IC50 [3, 14]: < 1 µM
N=C(N)Nc1ccc(-c2ccc(-c3ccc(NC(=N)N)cc3Cl)o2)c(Cl)c1 [MMV688179] |  | 5.68 µM | 0.29 µM | 1.03 µM | 0.23 µM | 1.01 µM | > 20 µM | 6.8 µM | 0.59 µM | IC50 [7, 17]: 4.1 µM; activity against T. cruzi in the Discovery Biology assay [1]: lack of activity; activity against T. cruzi at 8 μM in the Discovery Biology assay [1]: no activity; IC50 [3, 14]: < 1 µM
Cc1nn(C)c(C)c1NS(=O)(=O)c1c(Cl)cc(-c2ccnc(N3CCNCC3)c2)cc1Cl [MMV688180] |  |  | 0.85 µM | < 0.13 µM | < 0.13 µM | 1.01 µM |  | 0.0454 µM |  | IC50 ([1]; read-out: T cruzi Discovery Biology IC50): 2.91 µM; IC50 ([2]; Trypanosoma brucei, read-out: T b.brucei Discovery Biology IC50): 0.01 µM; IC50 [6, 18]: 0.63 µM; IC50 (HEK293 cells; [19]): 0.66 µM
CCc1ccccc1-n1c(C)cn2c3c(=O)n(C(C(=O)OC)C(C)C)c(=O)n(C)c3nc12 (stereo not shown) [MMV688550] | 0.64 µM | 0.13 µM | 0.99 µM | < 0.13 µM | < 0.13 µM | > 32 µM | > 20 µM | 44.3 µM | 2.48 µM | selectivity index (SI) T. cruzi versus HEK293 ([1]; HEK293): > 31; selectivity index (SI) T. brucei brucei versus HEK293 ([2]; HEK293): > 154
Cc1nn2c(=O)c3c([nH]c2c1-c1ccc(Cl)cc1)CCCC3 [MMV688776] |  | 1.79 µM | 0.72 µM | 0.5 µM | 0.14 µM | 44 µM | > 20 µM |  |  | activity against T. cruzi at 8 μM in the Discovery Biology assay [1]: no activity; IC50 [3, 14]: < 1 µM
CC1COC(Cn2cncn2)(c2ccc(Oc3ccc(Cl)cc3)cc2Cl)O1 (stereo not shown) [MMV688943, difenoconazole] | 0.1 µM |  | 0.015 µM | 32.5 µM | 26.2 µM | 44.7 µM | > 20 µM |  |  | Emax [1]: < 100%
CO/N=C(\C(=O)OC)c1ccccc1CO/N=C(\C)c1cccc(C(F)(F)F)c1 [MMV688754] |  |  | 1.94 µM | 33.6 µM | 26.2 µM | > 64 µM | > 20 µM |  |  | IC50 [7, 20]: 0.14 µM; IC50 ([6]; 3D7, read-out: Antiplasmodial IC50 (ABS)): 0.19 µM
O=C(NCc1nnc2n1CCCCC2)c1ccc(-c2ccc(F)cc2)o1 [MMV688796] | 1.52 µM | 0.23 µM | 2.07 µM | 0.1 µM | 0.13 µM | > 64 µM | > 20 µM |  |  | activity against T. brucei rhodesiense (T. brucei rhodesiense): demonstrated activity
O=C(Nc1ccc(F)c(-c2nc3cc(-c4ccccc4)cnc3[nH]2)c1)N1CCCC1 [MMV688372] | 0.19 µM | 0.02 µM | < 0.13 µM | < 0.13 µM | < 0.13 µM | 0.16 µM |  |  |  | IC50 ([5]; PBox compounds, read-out: IC50 L. donovani (Discovery Biology)): 1.15 µM; IC50 [5, 13]: 1.51 µM; IC50 (HEK293 cells; [19]): 4.6 µM
CNC(=O)c1nn(C)c2c1C(C)(C)Cc1cnc(Nc3ccc(N4CCN(C)CC4)cc3)nc1-2 [MMV676602] |  | 0.17 µM | 1.05 µM | < 0.13 µM | < 0.13 µM | 0.85 µM |  |  |  | IC50 [5, 13]: 1.43 µM; HepG2 PBox CC20 (HepG2): <0.26 µM; IC50 [6, 18]: 3.17 µM; IC50 (HEK293 cells; [19]): 1.3 µM
CC(C)(C)C(O)C(Oc1ccc(-c2ccccc2)cc1)n1cncn1 (stereo not shown) [MMV688942, Bitertanol] | 0.08 µM |  | 0.055 µM | 32.9 µM | 28 µM | > 64 µM | > 20 µM |  |  | Emax [1]: < 100%
COc1cc(C2=NCCN2)cc2cc(-c3ccc(C4=NCCN4)cc3)oc12 [MMV688362] |  |  | 13.3 µM | 14.5 µM | 0.78 µM | > 32 µM | > 20 µM | 14.3 µM | 0.59 µM | IC50 [7, 17]: 6.67 µM
CC1=Nc2ccc(Cl)cc2C(O)(c2ccc(C)cc2)N1CCN1CCCCC1 (stereo not shown) [MMV688279] |  | 4.52 µM | 4.04 µM | 0.98 µM | 0.43 µM | 4.06 µM | > 20 µM | 10.0 µM | 0.32 µM | IC50 [7, 20]: 2.4 µM; IC50 ([7]; read-out: Antiplasmodial IC50 (GAM / LSG), PBox compounds, stage IV gametocytes, single determination): 2.35 µM
O=C(Nc1ccc2c(c1)B(O)OC2)c1ccccc1C(F)(F)F [MMV652003] |  | 0.11 µM | 0.27 µM | 0.15 µM | 0.23 µM | 1.41 µM |  | 0.4 µM | 0.92 µM | IC50 [5, 13]: 1.25 µM; inhibition at 20 µM (HEK293 cells; [12]): 78%
NCCN(C(=O)c1ccc(Cl)cc1Cl)c1ccc(OCc2ccc(Cl)cc2)cc1 [MMV688371] | 4.35 µM | 0.24 µM | 0.62 µM | < 0.13 µM | < 0.13 µM | 0.63 µM | > 20 µM |  |  | activity against T. brucei rhodesiense (T. brucei rhodesiense): demonstrated activity
CCCCN(CCCC)c1c(C#N)cc(S(=O)(=O)Nc2ccccc2)cc1C#N [MMV688467] |  | 1.15 µM | 0.82 µM | 0.26 µM | 0.24 µM | 13.6 µM | > 20 µM | 11.9 µM |  | IC50 [1, 21]: 3.98 µM
CC1CCCCN1C(=O)NCCc1coc(-c2ccc(F)cc2)n1 (stereo not shown) [MMV688797] | 0.37 µM | 0.13 µM | 0.48 µM | 0.13 µM | 0.11 µM | > 64 µM | > 20 µM |  |  | 
COc1ccc(C2=NCCN2)cc1-c1cn(-c2cccc(C3=NCCN3)c2)nn1 [MMV688547] |  |  | > 32 µM | > 32 µM | 1.63 µM | > 32 µM | > 20 µM | >80 µM | 1.02 µM | 
Cc1ccc(S(=O)(=O)Nc2ccc(CN3CCN(C(=O)c4cccc(C#N)c4)CC3)cc2)cc1 [MMV689028] |  |  |  |  | 0.12 µM | 32 µM | > 20 µM |  |  | IC50 [1, 21]: 0.67 µM; IC50 ([2]; Trypanosoma brucei; PBox compounds; read-out: IC50 T. brucei brucei (Discovery Biology)): 0.24 µM; IC50 [3, 14]: 1.2 µM; IC50 (T. brucei brucei; read-out: T. brucei brucei IC50, PBox): 0.14 µM; activity against T. brucei rhodesiense (T. brucei rhodesiense): demonstrated activity
